In patent publication EP1064940A1, “Antiviral therapy” (Universitair Medisch Centrum Utrecht, priority 1999, dated 2001):

How the values were obtained:
Assay type in all cases: cell-based
[1] = tested on: HIV-1; assay: HIV-1 infection of PHA-stimulated PBMC, p24-core antigen ELISA (strain not specified in the result); conditions: Human immunodeficiency virus 1; PHA-stimulated PBMC infected with HIV-1AT or HIV-1BaL; p24 after 4 and 5 days; read-out: Concentrations that inhibit HIV-1 production
Experimental: (§1) HIV-1 strain Ba-L is grown to high titer in MDM. The 50% tissue culture infectious dose (TCID50) of the virus stock is determined by endpoint dilution with serial fourfold dilutions in a 96-well microtiter plate on MDM. HIV-1 strain AT is grown to high titer in PHA-stimulated PBMC. The TCID50 of the virus stock is determined by endpoint dilution with serial fourfold dilutions in a 96-well microtiter plate on PBMC.

[2] = tested on: Monocyte-derived macrophages (MDM); assay: MTT cytotoxicity assay in monocyte-derived macrophages; conditions: 4 days incubation in different concentrations
Experimental: Cell viability is assessed by the MTT assay. In short, cells are incubated with MTT 3-(4,5-dimethylthiazol-2-yl)-2,5-diphenyltetrazollumbromide (Sigma) for 2 hours at 37 °C. During this time viable cells convert MTT into […] formazan dyes. Afterwards crystals are solubilised with a solution containing isopropanol. The OD of the supernatant is measured at 550 nm.
Fig 3 - Monocyte-derived macrophages (MDM) were obtained like described in legend of Fig.2. […] After a 4 days incubation period cellular viability was assessed by MTT cytotoxicity assay where viable cells convert MTT into a colored formazan dye that can be measured spectrophotometrically.

[3] = tested on: HIV-1BaL; assay: HIV-1BaL infection of PHA-stimulated PBMC, p24-core antigen ELISA
Experimental: as §1

[4] = tested on: PBMC; assay: WST-1 cytotoxicity assay in PBMC; conditions: 5 days incubation
Experimental: Cell viability is assessed with WST-1 assay. Cells are incubated with the tetrazolium salt WST-1 (4-[3-(4-lodophenyl)-2-(4-nitrophenyl)-2H-5-tetrazolio]-1,3-benzene disulfonate) for 2 hours at 37 °C. During this time viable cells convert WST-1 into water soluble formazan dyes. The OD of the supernatant is measured at 550 nm.
Fig 5 - PBMC were obtained and stimulated as described in legend of Fig. 4. […] After a 5 days incubation period cellular viability was assessed by WST-1 cytotoxicity assay where viable cells convert WST-1 into a coloured formazan dye that can be measured spectrophotometrically.

[5] = tested on: HIV-1Ba-L; assay: HIV-1 infection of monocyte-derived macrophages, p24-core antigen ELISA; conditions: Human immunodeficiency virus 1, Macrophage, MDM infected with HIV-1Ba-L, multiplicity of infection 0.02
Experimental: Cells are washed twice and monocytes are purified by countercurrent centrifugal elutriation. Cells are >98% monocytes by criteria of cell morphology on May-Grunwald-Giemsa-stained cytosmears and by nonspecific esterase staining using alpha-naphtylacetate (Sigma Chemical Co., St. Louis, MO) as substrate.
as §1
PBMC were washed twice and monocytes were purified by countercurrent centrifugal elutriation. […] Concentrations above 0.3 µM APHS inhibit p24 production. 30 µM APHS inhibits HIV-1 replication by 88%.

For `CCCCC#CCSc1ccccc1OC(C)=O` [APHS, o-(acetoxy-phenyl)hept-2-ynyl sulphide], the minimal effective concentration [1] was > 1 µM, the “cytotoxicity (cellular viability, MTT)” value [2] was “None of the tested concentrations of APHS was found to be cytotoxic” and the inhibition at 1 µM ([3]; Human immunodeficiency virus 1, 1 µM APHS, when infectivity is lower (Fig 4c), read-out: inhibit HIV-1BaL production by) was 50%. For the same compound, the inhibition at 30 µM ([3]; Human immunodeficiency virus 1, 30 µM APHS, read-out: inhibit HIV-1BaL replication by) was 100%, the “Concentrations found to reduce viability” value [4] was ≥ 100 µM and the inhibition at 30 µM ([5]; 30 µM APHS, read-out: inhibits HIV-1 replication by) was 88%. For the same compound, the minimal effective concentration ([5]; supernatant after 4 and 5 days, read-out: Concentrations that inhibit p24 production) was > 0.3 µM.
